# Test system: C57BL/6 male mice
# Test: Glucose tolerance test in mice with triacylglycerols: plasma GLP-1 concentration (ELISA)
# Format: in vivo
# Conditions: 300 μl sample oral per mouse; glucose 2.5 g/kg 60 minutes after sample; blood 30 minutes after glucose; mean±standard error
# Procedure: A glucose tolerance test was carried out by the following method to examine effects of administration of triacylglycerol to mice on the plasma GLP-1 secretion during glucose tolerance.
# To the PBS solution (10 ml) obtained in the same manner as in the (1-1) above, 50 mg of carboxymethyl cellulose (trade name “Carboxymethyl cellulose sodium”, manufactured by FUJIFILM Wako Pure Chemical Industries, Ltd.) was added and mixed to obtain a carrier solution. To the obtained carrier solution, 2 g of triacylglycerol (trade name “Tridecanoin <Tricaprin>”, manufactured by New Check Prep Co., Ltd.) in which the constituent fatty acids were all capric acid was added and mixed while heating to obtain TriC10 sample.
# A carrier solution was obtained in the same manner as in the (1-2) above. […]
# Plasma was prepared from the obtained blood by a conventional method, and the plasma GLP-1 concentration (pM) was measured. Note here that the plasma GLP-1 concentration was measured by ELISA using a commercially available kit (trade name “Glucagon Like Peptide-1 (Active) ELISA”, manufactured by Sigma-Aldrich). […]
structure (smiles),measurement,value
"CCCCCCCCCC(=O)OCC(COC(=O)CCCCCCCCC)OC(=O)CCCCCCCCC [TriC10, Tridecanoin <Tricaprin>]",GLP-1 CONCENTRATION (plasma),2.803 ± 0.952 pM
